# According to paper PMC5362913, “A new class of inhibitors of the AraC family virulence regulator Vibrio cholerae ToxT” (Scientific Reports, 2017):
# What was measured:
# [1] = molecular target: T1, ToxT (Vibrio cholerae serotype O1, UniProt A5F384); type: biochemical; conditions: for inhibition of ToxT DNA-binding in dose-response EMSA, compared with virstatin: compounds 10, 1, 0.1 μM, virstatin 100, 10, 1, 0.1 μM
# T1 construct: made in house; host or cells: E. coli BL21-CodonPlus (DE3)-RIL
# T1 sequence (A5F384 1-276): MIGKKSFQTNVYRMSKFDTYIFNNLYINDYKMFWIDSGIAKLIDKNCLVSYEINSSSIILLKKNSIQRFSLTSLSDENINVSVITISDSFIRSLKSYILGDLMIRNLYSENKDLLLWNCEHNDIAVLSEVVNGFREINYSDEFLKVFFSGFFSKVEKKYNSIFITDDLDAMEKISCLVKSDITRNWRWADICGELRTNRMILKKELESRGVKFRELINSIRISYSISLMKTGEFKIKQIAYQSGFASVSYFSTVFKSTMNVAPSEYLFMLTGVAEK
# [2] = tested on: V. cholerae classical strain O395; assay: Autoagglutination assay of O395 cultures; type: cell-based, Vibrio cholerae
# [3] = molecular target: T1, ToxT; assay: Competition STD NMR with virstatin as indicator; type: binding; conditions: 20 μM ToxT, 100 μM virstatin; based on KD of virstatin and decrease in STD signal; read-out: calculated Ki
# Method: (§1) Virstatin was solubilized in DMSO-d6 and compounds 5a and 3b in DMSO, at working stock concentrations of 35.5 mM, 394 mM, and 50.5 mM, respectively. Purified ToxT in protein buffer (20 mM Tris, 1 mM EDTA, 320 mM NaCl, pH 7.5) was used at a final concentration of 20 μM. All samples contained 50 μM 3-(Trimethylsilyl)-1-propanesulfonic acid sodium salt (TSP) as an internal standard and 5% D2O. All NMR experiments were carried out on a Bruker Avance 600 MHz or 700 MHz spectrometer equipped with a TCI cryogenic probe. Samples were stored at 4 °C prior to acquisition.
# Virstatin was used as the STD indicator at a concentration of 100 μM. Compounds 5a and 3b were added at concentrations of 20–200 μM. STD spectra were obtained as above, with a saturation time of 3 seconds. The calculation of the competitive inhibition was as follows[60]:
# where CI is the concentration of inhibitor with unknown KD (compound 5a or 3b), CL is the concentration of ligand with known KD (virstatin), KD is that of virstatin, and i is the inhibition expressed as a fraction: [drawing 6] .
# [4] = tested on: tcpA-lacZ; assay: β-galactosidase reporter assay of tcpA-lacZ transcriptional fusion; type: cell-based, Vibrio cholerae; conditions: 5 μM and 0.5 μM
# [5] = molecular target: T1, ToxT; assay: STD NMR determination of KD; type: binding
# Method: as §1
# KD determination followed the protocol outlined by Angulo et al.[57]. For on-resonance spectra, the protein was saturated at 500 Hz or 583.33 Hz for the 600 MHz and 700 MHz NMR spectrometers, respectively, for 1–4 seconds utilizing a train of 50 ms Gaussian pulses. For off-resonance spectra, the sample was irradiated at −2000 Hz. The total relaxation delay was 7 seconds. Data acquisition consisted of 128 scans and 32,768 points. The STD-effect was calculated by measuring the intensity of the virstatin aromatic proton peaks in the on- and off-resonance spectra:
# The KD of virstatin was calculated using Michaelis-Menten kinetics. The STD-AF0 was plotted as a function of the ligand concentration to construct the binding (Langmuir) isotherm: […]
Compound,"inhibition of ToxT DNA-binding in dose-response EMSA, compared with virstatin [1]",autoagglutination of O395 cultures ([2]; 50 nM),autoagglutination of O395 cultures ([2]; 0.5 μM),further results
Cc1cccc2cccc(/C=C/CC(=O)O)c12 [3b],inhibited DNA-binding more strongly than virstatin,inhibited,completely abolished detectable autoagglutination,Ki [3]: 10 µM
Cc1cccc2cccc(CCC(=O)O)c12 [4a],inhibited DNA-binding more strongly than virstatin,inhibited,completely abolished detectable autoagglutination,–
Cc1cccc2cccc(CCCC(=O)O)c12 [4b],inhibited DNA-binding more strongly than virstatin,inhibited,completely abolished detectable autoagglutination,–
Cc1cccc2c1C(CCC(=O)O)CCC2 (stereo not shown) [5a],inhibited DNA-binding more strongly than virstatin,inhibited,completely abolished detectable autoagglutination,Ki [3]: 31 µM
"CCCCCC/C=C\CCCCCCCC(=O)O [cis-palmitoleic acid, reference compound]",–,–,–,inhibition of tcpA transcription (relative β-galactosidase activity of tcpA-lacZ) [4]: essentially no effect; autoagglutination of O395 cultures ([2]; 0.5 μM and 0.05 μM): no effect
"CCCCCCCC/C=C\CCCCCCCC(=O)O [oleic acid, reference compound]",–,–,–,inhibition of tcpA transcription (relative β-galactosidase activity of tcpA-lacZ) [4]: essentially no effect; autoagglutination of O395 cultures ([2]; 0.5 μM and 0.05 μM): no effect
"O=C(O)CCCN1C(=O)c2cccc3cccc(c23)C1=O [virstatin, reference compound]",–,–,did not,"ToxT binding to tcpA promoter DNA (EMSA) ([1]; 100 μM compound, 0.78 μM ToxT): prevented ToxT from binding DNA; Kd ([5]; from STD spectra of aromatic protons Ha,b): 483 ± 109 µM; Kd ([5]; from STD spectra of aromatic protons He,f): 331 ± 65 µM"
